According to patent publication US9017700B2, “Production of a viable, storable worm egg suspension” (Dr. Falk Pharma GmbH, priority 2008, dated 2015):
Marks after values point to notes of the source that are not given here.

Columns and labels:
[1] = test system: Psuedomonas aeruginosa; experiment: Colony number in TSO samples at pH 4 with preservatives; assay type: cell-based; conditions: 10 000 TSO/ml in phosphate buffer pH 4, 25° C.; for T 1d: 1 day; for T 7d: 7 days
Experimental: (§1) Raising the pH from pH 2 to pH 4 and addition of preservatives Experimental conditions for examples 4a to 4e: […] The following microorganisms were added to the test samples: • Aspergillus niger in the form of an individual microorganism • Pseudomonas aruginosa, Staphylococcus aureus, Candida albicans and Escherichia coli in combination. The incubation temperature was 25° C. The test plates were evaluated after 1 to 7 days.

[2] = test system: Staphylococcus aureus; experiment: as above; assay type: cell-based; conditions: 10 000 TSO/ml in phosphate buffer pH 4, 25° C.; for T 1d: 1 day; for T 7d: 7 days
Experimental: as §1

[3] = test system: Aspergillus niger; experiment: as above; assay type: cell-based; conditions: 10 000 TSO/ml in phosphate buffer pH 4, 25° C.; for T 1d: 1 day; for T 7d: 7 days
Experimental: as §1

[4] = test system: Escherichia coli; experiment: as above; assay type: cell-based; conditions: 10 000 TSO/ml in phosphate buffer pH 4, 25° C.; for T 1d: 1 day; for T 7d: 7 days
Experimental: as §1

[5] = test system: Candida albicans; experiment: as above; assay type: cell-based; conditions: 10 000 TSO/ml in phosphate buffer pH 4, 25° C.; for T 1d: 1 day; for T 7d: 7 days
Experimental: as §1

[6] = test system: Aspergillus niger; experiment: Microbial count after H2SO4 treatment of inoculated nutrient suspension (test molds); assay type: cell-based
[7] = test system: Penicillium brevicomp.; experiment: as above; assay type: cell-based
[8] = test system: Saccharomyces cer.; experiment: Microbial count after H2SO4 treatment of inoculated nutrient suspension (test yeasts); assay type: cell-based
[9] = test system: Candida albicans; experiment: as above; assay type: cell-based
[10] = test system: indicator cells
[11] = test system: feline calicivirus (FCV); assay type: cell-based; conditions: pH 2, 30° C., with TSO; after 3 h
[12] = test system: Escherichia coli; experiment: Microbial count after H2SO4 treatment of inoculated nutrient suspension (test bacteria); conditions: pH 2, 6 h at 30° C.
[13] = test system: Clostridium sporog.; experiment: as above; assay type: cell-based; conditions: pH 2, 6 h at 30° C.
[14] = test system: Staphylococus aureus; experiment: as above; conditions: pH 2, 6 h at 30° C.
[15] = test system: Bacillus subtilis; experiment: as above; conditions: pH 2, 6 h at 30° C.
[16] = test system: porcine parvovirus (PPV); assay type: cell-based; conditions: pH 2, 30° C., with TSO; after 3 h
[17] = test system: microorganisms in Trichuris suis egg suspension (TSO); experiment: Depletion of microorganisms in a T. suis egg suspension (microbial count per DAB 2.6.12); assay type: cell-based; conditions: TSO 2400 eggs/ml rebuffered to pH 2; after storage for 3 h at 30° C.
Experimental: The microbial count in a Trichuris suis egg suspension (TSO) in phosphate buffer (pH 7) at a concentration of 2400 eggs/ml was determined as specified in the DAB (German Pharmacopoeia, section 2.6.12, last updated with the 24th Supplement in 2006). […] This suspension was then rebuffered to pH 2 in dilute H2SO4 solution.

[18] = test system: pseudorabies virus (PRV); assay type: cell-based; conditions: pH 2, 30° C., with TSO; after 10 min
[19] = test system: Salmonella typhymurium; experiment: Microbial count after H2SO4 treatment of inoculated nutrient suspension (test bacteria); conditions: pH 2, 6 h at 30° C.
[20] = test system: murine leukemia virus (MuLV); assay type: cell-based; conditions: pH 2, 30° C., with TSO; after 10 min

CC(O)CO (stereo not shown) [Propylene glycol 15%, Propylene glycol]
T 1d [1]: 10 cfu/ml
T 7d [1]: <10 cfu/ml
T 0 [1]: 180 000 cfu/ml
T 1d [2]: 14 000 cfu/ml
T 7d [2]: <10 cfu/ml
T 0 [2]: 130 000 cfu/ml
T 1d [3]: 30 000 cfu/ml
T 7d [3]: 9000 cfu/ml
T 0 [3]: 120 000 cEu/ml
T 1d [4]: 7100 cfu/ml
T 7d [4]: <10 cfu/ml
T 0 [4]: 140 000 cfu/ml
T 1d [5]: 8600 cfu/ml
T 7d [5]: 30 cfu/ml
T 0 [5]: 240 000 cfu/ml

O=S(=O)(O)O [H2SO1 pH 0, H2SO4]
microbial count T3h H2SO1 pH 0 ([6]; pH 0, 3 h at 25° C.): 50 cfu
microbial count T48h H2SO1 pH 0 ([6]; pH 0, 48 h at 25° C.): <10 cfu
microbial count T3h H2SO1 pH 0 ([7]; pH 0, 3 h at 25° C.): 70 cfu
microbial count T48h H2SO1 pH 0 ([7]; pH 0, 48 h at 25° C.): <10 cfu

O=S(=O)(O)O [H2SO4 pH 1, H2SO4]
microbial count T3h H2SO4 pH 1 ([8]; pH 1, 3 h at 25° C.): 39 000 cfu
microbial count T48h H2SO4 pH 1 ([8]; pH 1, 48 h at 25° C.): 40* cfu
microbial count T3h H2SO4 pH 1 ([6]; pH 1, 3 h at 25° C.): 500 000 cfu
microbial count T48h H2SO4 pH 1 ([6]; pH 1, 48 h at 25° C.): 500 000 cfu
microbial count T3h H2SO4 pH 1 ([7]; pH 1, 3 h at 25° C.): 39 000 cfu
microbial count T48h H2SO4 pH 1 ([7]; pH 1, 48 h at 25° C.): 14 000 cfu
microbial count T3h H2SO4 pH 1 ([9]; pH 1, 3 h at 25° C.): 26 000 cfu
microbial count T48h H2SO4 pH 1 ([9]; pH 1, 48 h at 25° C.): <10 cfu

O=C(O)c1ccccc1 [Benzoic acid 0.2%, Benzoic acid]
T 1d [1]: <10 cfu/ml
T 7d [1]: <10 cfu/ml
T 0 [1]: 180 000 cfu/ml
T 1d [2]: <10 cfu/ml
T 7d [2]: <10 cfu/ml
T 0 [2]: 130 000 cfu/ml
T 1d [3]: 90 cfu/ml
T 7d [3]: <10 cfu/ml
T 0 [3]: 120 000 cEu/ml
T 1d [4]: <10 cfu/ml
T 7d [4]: <10 cfu/ml
T 0 [4]: 140 000 cfu/ml
T 1d [5]: <10 cfu/ml
T 7d [5]: <10 cfu/ml
T 0 [5]: 240 000 cfu/ml

C/C=C/C=C/C(=O)O [Sorbic acid 0.1%, Sorbic acid]
T 1d [1]: 30 cfu/ml
T 7d [1]: <10 cfu/ml
T 0 [1]: 180 000 cfu/ml
T 1d [2]: 240 cfu/ml
T 7d [2]: <10 cfu/ml
T 0 [2]: 130 000 cfu/ml
T 1d [3]: 20 000 cfu/ml
T 7d [3]: <10 cfu/ml
T 0 [3]: 120 000 cEu/ml
T 1d [4]: 490 cfu/ml
T 7d [4]: <10 cfu/ml
T 0 [4]: 140 000 cfu/ml
T 1d [5]: 190 cfu/ml
T 7d [5]: <10 cfu/ml
T 0 [5]: 240 000 cfu/ml

[K+].[K+].[O]=[Cr](=[O])([O-])[O][Cr](=[O])(=[O])[O-] [potassium dichromate]
cytotoxicity [10]: cytotoxicity

O=S(=O)(O)O [H2SO4 pH 2, H2SO4]
viral activity [11]: no longer infectious
microbial count, H2SO4 pH 2 after 6 h [12]: <10 colony-forming units
microbial count, H2SO4 pH 2 after 6 h [13]: <10 colony-forming units
microbial count, H2SO4 pH 2 after 6 h [14]: <10 colony-forming units
microbial count T3h H2SO4 pH 2 ([8]; pH 2, 3 h at 25° C.): 380 000 cfu
microbial count T48h H2SO4 pH 2 ([8]; pH 2, 48 h at 25° C.): 220 000 cfu
microbial count, H2SO4 pH 2 after 6 h [15]: 20* colony-forming units
viral activity [16]: no longer infectious
microbial count T3h H2SO4 pH 2 ([6]; pH 2, 3 h at 25° C.): 370 000 cfu
microbial count T48h H2SO4 pH 2 ([6]; pH 2, 48 h at 25° C.): 700 000 cfu
microbial count [17]: < 20 cfu/ml
microbial count T3h H2SO4 pH 2 ([7]; pH 2, 3 h at 25° C.): 90 000 cfu
microbial count T48h H2SO4 pH 2 ([7]; pH 2, 48 h at 25° C.): 32 000 cfu
microbial count T3h H2SO4 pH 2 ([9]; pH 2, 3 h at 25° C.): 380 000 cfu
microbial count T48h H2SO4 pH 2 ([9]; pH 2, 48 h at 25° C.): 32 000 cfu
viral activity [18]: no longer infectious
microbial count, H2SO4 pH 2 after 6 h [19]: <10 colony-forming units
viral activity [20]: no longer infectious
